The test concerns Fibroblast. Briefly: Cytotoxicity against L-strain mouse fibroblasts at 0.05 mg/ml. It counts as functional, cell-based.

Calls of active or inactive are those of the source. The rule behind the calls is not given here.

For the compound `COc1c(O)cc2oc(-c3ccc(O)cc3)cc(=O)c2c1O`, the result was Active.

The values above are taken from ChEMBL document CHEMBL1151395, “Cytotoxic Flavones From Centaurea urvillei” (J Nat Prod, 1982).
